The values that follow come from ChEMBL document CHEMBL1671786, “Probes for narcotic receptor mediated phenomena. 41. Unusual inverse μ-agonists and potent μ-opioid antagonists by modification of the N-substituent in enantiomeric 5-(3-hydroxyphenyl)morphans” (J Med Chem, 2011).

In assay [1] the target is T1, Mu-type opioid receptor (Homo sapiens, UniProt P35372). As to the kind of experiment: Binding affinity to mu opioid receptor.
Assay [2] has as its target T1, Mu-type opioid receptor. As to the kind of experiment: Displacement of [125I]IOXY from human recombinant mu opioid receptor expressed in CHO cells. The assay is classed as cell-based. (In a radioligand displacement assay an active substance lowers the binding of a labelled ligand.)
The target in assay [3] is Delta-type opioid receptor (Homo sapiens, UniProt P41143). As to the kind of experiment: Displacement of [125I]IOXY from human recombinant delta opioid receptor expressed in CHO cells. The assay is classed as cell-based.
Delta-type opioid receptor, sequence (P41143 whole entry): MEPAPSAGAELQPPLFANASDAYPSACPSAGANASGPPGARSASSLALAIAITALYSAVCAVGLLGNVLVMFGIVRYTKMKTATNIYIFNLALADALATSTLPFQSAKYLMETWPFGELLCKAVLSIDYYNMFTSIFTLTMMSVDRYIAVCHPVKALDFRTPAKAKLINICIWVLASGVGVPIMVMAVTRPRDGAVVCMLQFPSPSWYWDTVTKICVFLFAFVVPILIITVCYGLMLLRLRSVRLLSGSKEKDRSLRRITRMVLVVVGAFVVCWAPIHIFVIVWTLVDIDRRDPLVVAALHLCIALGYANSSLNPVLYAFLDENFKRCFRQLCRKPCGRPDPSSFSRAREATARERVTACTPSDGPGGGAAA
In assay [4] the target is Kappa-type opioid receptor (Homo sapiens, UniProt P41145). As to the kind of experiment: Displacement of [125I]IOXY from human recombinant kappa opioid receptor expressed in CHO cells. The assay is classed as cell-based.
Kappa-type opioid receptor, sequence (P41145 whole entry): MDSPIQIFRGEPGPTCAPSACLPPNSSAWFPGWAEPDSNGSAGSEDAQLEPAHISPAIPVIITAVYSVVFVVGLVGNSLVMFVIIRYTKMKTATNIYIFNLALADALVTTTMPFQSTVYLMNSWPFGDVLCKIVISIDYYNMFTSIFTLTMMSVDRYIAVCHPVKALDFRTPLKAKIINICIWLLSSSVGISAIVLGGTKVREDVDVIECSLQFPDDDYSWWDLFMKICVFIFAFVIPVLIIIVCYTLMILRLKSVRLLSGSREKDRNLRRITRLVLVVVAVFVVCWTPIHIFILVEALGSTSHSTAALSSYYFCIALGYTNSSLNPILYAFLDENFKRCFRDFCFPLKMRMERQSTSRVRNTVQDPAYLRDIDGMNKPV
In assay [5] the target is T1, Mu-type opioid receptor.
Description: Inverse agonist activity at mu opioid receptor by [35S]GTPgammaS binding assay

Each structure is given as a SMILES string.

T1 sequence (P35372 whole entry): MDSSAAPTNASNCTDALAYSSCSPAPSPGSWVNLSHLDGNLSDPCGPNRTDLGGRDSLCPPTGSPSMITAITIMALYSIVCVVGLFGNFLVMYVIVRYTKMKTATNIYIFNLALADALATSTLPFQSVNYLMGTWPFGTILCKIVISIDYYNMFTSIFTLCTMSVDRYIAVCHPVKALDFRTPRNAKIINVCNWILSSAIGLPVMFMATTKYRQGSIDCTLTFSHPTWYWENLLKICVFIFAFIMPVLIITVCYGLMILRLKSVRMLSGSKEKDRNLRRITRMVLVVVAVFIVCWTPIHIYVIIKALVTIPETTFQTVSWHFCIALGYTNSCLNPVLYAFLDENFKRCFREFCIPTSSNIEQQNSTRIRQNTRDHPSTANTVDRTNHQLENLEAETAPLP

Molecule `C[C@H]1CN(CC2CC2c2ccccc2)CC[C@@]1(C)c1cccc(O)c1` (some centres undefined) came in with a Ki on Mu-type opioid receptor [1] of 0.00175 µM.
On to `Oc1cccc(C23CCCC(C2)N(C/C=C/c2ccccc2)CC3)c1` (single isomer, unassigned; (-)) [listing 1 of 2 here], for which the Ki at Mu-type opioid receptor [2] stood at 0.006 µM; in assay [3], 0.152 µM; in assay [4] it was 0.225 µM.
At Mu-type opioid receptor [5], `Oc1cccc([C@@]23CCC[C@@H](C2)N(C[C@@H]2C[C@H]2c2ccccc2)CC3)c1` came in with a Ke of 0.31 nM. Besides, the Ki on Mu-type opioid receptor [2] worked out at 0.004 µM; in assay [3], 0.2 µM; in assay [4] it was 0.21 µM.
Molecule `Oc1cccc([C@@]23CCC[C@@H](C2)N(C[C@H]2C[C@@H]2c2ccccc2)CC3)c1` displayed a Ke at Mu-type opioid receptor [5] of 0.17 nM. For the same molecule, the Ki on Mu-type opioid receptor [2] worked out at 0.003 µM; in assay [3], 0.165 µM; in assay [4], 0.072 µM.
As for `Oc1cccc([C@]23CCC[C@H](C2)N(C[C@@H]2C[C@@H]2c2ccccc2)CC3)c1`, on Mu-type opioid receptor [5], the Ke is 8.6 nM. Besides, the Ki at Mu-type opioid receptor [2] was found to be 0.265 µM; in assay [3] it was 0.61 µM; in assay [4] it was 0.153 µM.
In the same order, the values of `Oc1cccc([C@]23CCC[C@H](C2)N(C/C=C\c2ccccc2)CC3)c1` (single isomer, unassigned) are 3.1 nM, 0.026 µM, 0.454 µM and 0.123 µM.
For `Oc1cccc(C23CCCC(C2)N(C/C=C/c2ccccc2)CC3)c1` (single isomer, unassigned; (+)) [listing 1 of 2 here], the results for the Ki (on Mu-type opioid receptor [2]; in assay [3]; in assay [4]) were 0.002 µM, 0.138 µM and 0.125 µM, respectively.
As for `Oc1cccc([C@]23CCC[C@H](C2)N(C[C@@H]2C[C@H]2c2ccccc2)CC3)c1`, the Ke on Mu-type opioid receptor [5] stood at 9.4 nM. For the same molecule, the Ki on Mu-type opioid receptor [2] turned out to be 0.047 µM; in assay [3], 0.8 µM; in assay [4], 0.39 µM.
As for `Oc1cccc([C@@]23CCC[C@@H](C2)N(C/C=C\c2ccccc2)CC3)c1` (single isomer, unassigned), the Ke on Mu-type opioid receptor [5] was found to be 7.7 nM. Also, the Ki worked out at 0.014 µM at Mu-type opioid receptor [2], 0.359 µM in assay [3] and 0.367 µM in assay [4].
In the same order, the values of `Oc1cccc([C@]23CCC[C@H](C2)N(C[C@H]2C[C@H]2c2ccccc2)CC3)c1` are 18 nM, 0.076 µM, 0.547 µM and 0.174 µM.
`Oc1cccc([C@@]23CCC[C@@H](C2)N(C[C@@H]2C[C@@H]2c2ccccc2)CC3)c1` returned a Ke at Mu-type opioid receptor [5] of 8.2 nM. Besides, the Ki was 0.011 µM at Mu-type opioid receptor [2], 0.196 µM in assay [3] and 0.322 µM in assay [4].
Turning to `Oc1cccc(C23CCCC(C2)N(C/C=C/c2ccccc2)CC3)c1` (single isomer, unassigned; (-)) [listing 2 of 2 here], the Ke on Mu-type opioid receptor [5] stood at 6.6 nM.
`Oc1cccc([C@]23CCC[C@H](C2)N(C[C@H]2C[C@@H]2c2ccccc2)CC3)c1` displayed a Ke on Mu-type opioid receptor [5] of 2.2 nM. The Ki at Mu-type opioid receptor [2] worked out at 0.016 µM; in assay [3], 0.183 µM; in assay [4], 0.323 µM.
The molecule `Oc1cccc(C23CCCC(C2)N(C/C=C/c2ccccc2)CC3)c1` (single isomer, unassigned; (+)) [listing 2 of 2 here] came in with a Ke at Mu-type opioid receptor [5] of 0.58 nM.
`Oc1cccc([C@@]23CCC[C@@H](C2)N(C[C@H]2C[C@H]2c2ccccc2)CC3)c1` displayed a Ke at Mu-type opioid receptor [5] of 33 nM. The figures for the Ki (at Mu-type opioid receptor [2]; in assay [3]; in assay [4]) were 0.459 µM, 1.98 µM and 0.475 µM, respectively.

Broadly, the Ki is a dissociation constant, usually derived from enzyme kinetics or from competition with a known ligand.
